Reference: ChEMBL document CHEMBL4118122, “Identification and biological evaluation of thiazole-based inverse agonists of RORγt” (Bioorg Med Chem Lett, 2018)

Key:
D(1A) dopamine receptor = D(1A) dopamine receptor (Homo sapiens, UniProt P21728); test: Displacement of [3H]-SCH 23390 from human recombinant dopamine D1 receptor after 60 mins by scintillation counting analysis
[1] = biological target: 5-hydroxytryptamine receptor 5A (Homo sapiens, UniProt P47898); test: Displacement of [3H]LSD from human recombinant 5-HT5a receptor at 1 uM after 120 mins by scintillation counting analysis relative to control
Nociceptin receptor = Nociceptin receptor (Homo sapiens, UniProt P41146); test: Displacement of [3H]nociceptin from human recombinant NOP receptor at 10 uM after 60 mins by scintillation counting analysis relative to control
Sequence of Nociceptin receptor (P41146 whole entry): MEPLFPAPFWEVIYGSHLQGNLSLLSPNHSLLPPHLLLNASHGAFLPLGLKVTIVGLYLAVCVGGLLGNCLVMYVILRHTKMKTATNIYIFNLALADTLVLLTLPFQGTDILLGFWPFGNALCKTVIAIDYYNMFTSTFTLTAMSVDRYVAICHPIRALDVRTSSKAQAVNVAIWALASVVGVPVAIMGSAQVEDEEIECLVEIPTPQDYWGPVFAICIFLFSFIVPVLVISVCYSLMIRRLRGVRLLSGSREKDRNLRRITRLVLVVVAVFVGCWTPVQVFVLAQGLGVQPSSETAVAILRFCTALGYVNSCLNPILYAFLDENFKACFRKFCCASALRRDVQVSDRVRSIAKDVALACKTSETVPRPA

[2] = biological target: B2 bradykinin receptor (Homo sapiens) (UniProt P30411); test: Displacement of [3H]bradykinin from human recombinant B2 receptor at 10 uM after 60 mins by scintillation counting analysis relative to control
Sequence of B2 bradykinin receptor (Homo sapiens) (P30411 whole entry): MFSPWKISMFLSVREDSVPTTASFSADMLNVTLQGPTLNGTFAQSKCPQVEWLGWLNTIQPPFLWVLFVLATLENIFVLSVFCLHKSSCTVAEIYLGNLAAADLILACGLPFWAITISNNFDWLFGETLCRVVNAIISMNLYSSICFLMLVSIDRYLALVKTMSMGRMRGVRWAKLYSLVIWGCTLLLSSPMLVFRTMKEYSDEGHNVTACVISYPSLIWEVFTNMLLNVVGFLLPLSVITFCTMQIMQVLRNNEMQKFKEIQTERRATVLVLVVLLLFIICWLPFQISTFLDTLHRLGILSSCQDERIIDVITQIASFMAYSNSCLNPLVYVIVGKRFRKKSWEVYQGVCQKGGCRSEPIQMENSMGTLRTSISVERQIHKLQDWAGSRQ

Vasopressin V1a receptor [3] = biological target: T1, Vasopressin V1a receptor (Homo sapiens, UniProt P37288); test: Displacement of [3H]AVP from human recombinant V1a receptor at 10 uM after 60 mins by scintillation counting analysis relative to control
[4] = biological target: T2, Nuclear receptor ROR-beta (Homo sapiens, UniProt Q92753); test: Inverse agonist activity at human GAL4 DBD-fused RORbeta LBD (201 to 452 residues) expressed in HEK293T cells assessed as reduction in ROR mediated transcriptional activity after 24 hrs by dual glo luciferase reporter gene assay; type: cell-based
T2 sequence (Q92753 whole entry): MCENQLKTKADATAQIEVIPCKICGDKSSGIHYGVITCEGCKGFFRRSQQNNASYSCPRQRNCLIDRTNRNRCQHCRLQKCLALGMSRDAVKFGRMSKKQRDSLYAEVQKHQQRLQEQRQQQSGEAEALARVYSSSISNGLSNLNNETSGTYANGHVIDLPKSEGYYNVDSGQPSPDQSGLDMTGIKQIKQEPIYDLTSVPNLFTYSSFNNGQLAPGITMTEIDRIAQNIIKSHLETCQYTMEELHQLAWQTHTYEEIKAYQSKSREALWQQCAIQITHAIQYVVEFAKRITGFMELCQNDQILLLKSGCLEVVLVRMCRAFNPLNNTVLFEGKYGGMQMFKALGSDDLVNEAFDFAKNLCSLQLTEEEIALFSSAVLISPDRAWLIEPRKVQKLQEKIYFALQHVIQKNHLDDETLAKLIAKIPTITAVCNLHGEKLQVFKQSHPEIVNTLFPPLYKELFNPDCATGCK

[5] = Terminal half life in Sprague-Dawley rat at 5 mg/kg, po; type: ADME, organism-based; conditions: in vivo, read-out: beta t1/2 (converted)
[6] = biological target: Sodium-dependent noradrenaline transporter (Homo sapiens, UniProt P23975); test: Displacement of [3H]nisoxetine from recombinant human norepinephrine transporter after 120 mins by scintillation counting analysis
Sequence of Sodium-dependent noradrenaline transporter (P23975 whole entry, the tested form may be a part): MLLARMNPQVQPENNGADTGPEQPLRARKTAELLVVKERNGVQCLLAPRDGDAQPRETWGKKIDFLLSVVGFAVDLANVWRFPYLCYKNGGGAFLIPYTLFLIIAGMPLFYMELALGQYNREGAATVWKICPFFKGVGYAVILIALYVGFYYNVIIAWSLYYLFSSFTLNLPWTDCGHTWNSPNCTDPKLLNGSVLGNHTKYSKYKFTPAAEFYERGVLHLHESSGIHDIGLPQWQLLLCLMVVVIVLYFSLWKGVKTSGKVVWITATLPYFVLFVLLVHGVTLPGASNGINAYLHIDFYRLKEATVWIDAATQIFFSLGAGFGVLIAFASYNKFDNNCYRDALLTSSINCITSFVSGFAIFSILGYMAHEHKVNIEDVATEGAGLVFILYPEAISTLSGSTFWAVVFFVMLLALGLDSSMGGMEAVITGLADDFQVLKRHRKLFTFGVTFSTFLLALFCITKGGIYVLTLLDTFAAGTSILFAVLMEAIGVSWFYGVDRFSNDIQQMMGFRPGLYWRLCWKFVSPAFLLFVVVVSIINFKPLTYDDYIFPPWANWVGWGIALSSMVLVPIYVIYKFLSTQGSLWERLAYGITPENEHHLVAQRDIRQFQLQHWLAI

[7] = biological target: Serine/threonine-protein kinase PLK3 (Homo sapiens) (UniProt Q9H4B4); test: Inhibition of GST-tagged human PLK3 catalytic domain expressed in baculovirus expression system at 10 uM in presence of ATP relative to control
Sequence of Serine/threonine-protein kinase PLK3 (Homo sapiens) (Q9H4B4 whole entry, looked up, the tested form may be a part): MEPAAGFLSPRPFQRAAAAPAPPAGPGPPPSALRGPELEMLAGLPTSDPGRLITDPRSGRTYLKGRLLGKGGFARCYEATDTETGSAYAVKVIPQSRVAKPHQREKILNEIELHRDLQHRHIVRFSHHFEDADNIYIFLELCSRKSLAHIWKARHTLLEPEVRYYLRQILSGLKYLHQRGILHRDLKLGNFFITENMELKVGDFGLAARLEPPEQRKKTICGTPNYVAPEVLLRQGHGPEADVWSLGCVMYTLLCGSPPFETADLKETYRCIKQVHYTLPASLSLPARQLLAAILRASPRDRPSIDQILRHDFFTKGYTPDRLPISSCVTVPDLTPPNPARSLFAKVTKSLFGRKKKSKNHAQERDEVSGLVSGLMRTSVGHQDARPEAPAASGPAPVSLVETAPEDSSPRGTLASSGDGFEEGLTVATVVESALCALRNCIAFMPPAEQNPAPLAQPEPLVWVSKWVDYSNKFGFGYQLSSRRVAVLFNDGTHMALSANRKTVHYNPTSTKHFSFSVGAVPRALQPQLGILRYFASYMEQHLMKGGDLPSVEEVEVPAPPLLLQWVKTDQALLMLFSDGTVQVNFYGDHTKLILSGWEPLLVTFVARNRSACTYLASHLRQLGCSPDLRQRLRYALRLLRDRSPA

[8] = biological target: Adrenergic receptor alpha-1 (Rattus norvegicus, UniProt P15823+P23944+P43140); test: Displacement of [3H]-prazosin from rat alpha1 adrenoceptor after 60 mins by scintillation counting analysis; type: protein assay
[9] = biological target: 5-hydroxytryptamine receptor 6 (Homo sapiens, UniProt P50406); test: Displacement of [3H]LSD from human recombinant 5-HT6 receptor at 1 uM after 120 mins by scintillation counting analysis relative to control
Sequence of 5-hydroxytryptamine receptor 6 (P50406 whole entry): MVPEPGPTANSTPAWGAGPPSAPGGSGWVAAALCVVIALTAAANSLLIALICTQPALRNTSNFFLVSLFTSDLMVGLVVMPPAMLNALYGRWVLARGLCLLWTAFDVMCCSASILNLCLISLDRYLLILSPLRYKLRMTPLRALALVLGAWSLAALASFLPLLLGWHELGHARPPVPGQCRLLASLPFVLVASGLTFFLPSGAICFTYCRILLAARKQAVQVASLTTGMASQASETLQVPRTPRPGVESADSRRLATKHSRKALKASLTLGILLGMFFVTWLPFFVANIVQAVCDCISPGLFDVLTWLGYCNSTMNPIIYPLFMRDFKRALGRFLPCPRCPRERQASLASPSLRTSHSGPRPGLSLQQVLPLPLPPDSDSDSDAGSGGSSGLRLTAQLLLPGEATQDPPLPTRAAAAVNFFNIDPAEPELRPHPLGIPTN

D(2) dopamine receptor = D(2) dopamine receptor (Homo sapiens, UniProt P14416); test: Displacement of [3H]7-OH-DPAT from human recombinant dopamine D2S receptor at 1 uM after 60 mins by scintillation counting analysis relative to control
[10] = Cmax in Sprague-Dawley rat at 5 mg/kg, po; type: ADME, organism-based; design: dose 5 mg/kg, route oral; conditions: in vivo
[11] = biological target: 5-hydroxytryptamine receptor 7 (Homo sapiens, UniProt P34969); test: Displacement of [3H]LSD from human recombinant 5-HT7 receptor at 10 uM after 120 mins by scintillation counting analysis relative to control
Sequence of 5-hydroxytryptamine receptor 7 (P34969 whole entry): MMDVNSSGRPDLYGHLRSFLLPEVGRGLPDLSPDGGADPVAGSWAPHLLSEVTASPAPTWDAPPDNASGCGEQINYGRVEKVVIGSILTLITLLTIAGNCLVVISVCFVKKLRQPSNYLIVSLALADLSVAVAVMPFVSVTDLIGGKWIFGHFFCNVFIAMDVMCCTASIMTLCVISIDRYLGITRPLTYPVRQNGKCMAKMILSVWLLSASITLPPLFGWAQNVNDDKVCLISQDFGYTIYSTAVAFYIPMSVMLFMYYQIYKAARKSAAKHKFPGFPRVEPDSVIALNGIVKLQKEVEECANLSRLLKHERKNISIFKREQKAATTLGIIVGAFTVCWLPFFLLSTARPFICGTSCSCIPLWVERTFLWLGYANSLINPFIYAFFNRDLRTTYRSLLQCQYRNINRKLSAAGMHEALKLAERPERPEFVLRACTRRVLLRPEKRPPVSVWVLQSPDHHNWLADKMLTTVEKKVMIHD

[12] = biological target: B2 bradykinin receptor (Homo sapiens) (UniProt P30411); test: Displacement of [3H]bradykinin from human recombinant B2 receptor at 1 uM after 60 mins by scintillation counting analysis relative to control
[13] = biological target: Cholecystokinin receptor type A (Homo sapiens) (UniProt P32238); test: Displacement of [125I]CCK-8s from human recombinant CCK1 receptor at 10 uM after 60 mins by scintillation counting analysis relative to control
Sequence of Cholecystokinin receptor type A (Homo sapiens) (P32238 whole entry): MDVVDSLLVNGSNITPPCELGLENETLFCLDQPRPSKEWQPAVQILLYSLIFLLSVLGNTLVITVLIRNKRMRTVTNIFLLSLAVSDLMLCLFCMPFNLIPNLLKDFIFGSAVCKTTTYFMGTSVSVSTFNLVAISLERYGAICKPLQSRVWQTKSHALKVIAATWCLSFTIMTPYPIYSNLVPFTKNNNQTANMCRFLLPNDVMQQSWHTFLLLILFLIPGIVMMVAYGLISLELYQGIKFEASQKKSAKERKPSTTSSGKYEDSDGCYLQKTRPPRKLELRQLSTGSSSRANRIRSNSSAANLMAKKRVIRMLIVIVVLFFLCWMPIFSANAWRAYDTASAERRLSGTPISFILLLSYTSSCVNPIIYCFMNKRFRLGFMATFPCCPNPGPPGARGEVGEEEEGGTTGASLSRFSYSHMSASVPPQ

[14] = biological target: Neurotensin receptor type 1 (Homo sapiens, UniProt P30989); test: Displacement of [125I]Tyr3-neurotensin from human recombinant NTS1 receptor after 120 mins by scintillation counting analysis
Sequence of Neurotensin receptor type 1 (P30989 whole entry): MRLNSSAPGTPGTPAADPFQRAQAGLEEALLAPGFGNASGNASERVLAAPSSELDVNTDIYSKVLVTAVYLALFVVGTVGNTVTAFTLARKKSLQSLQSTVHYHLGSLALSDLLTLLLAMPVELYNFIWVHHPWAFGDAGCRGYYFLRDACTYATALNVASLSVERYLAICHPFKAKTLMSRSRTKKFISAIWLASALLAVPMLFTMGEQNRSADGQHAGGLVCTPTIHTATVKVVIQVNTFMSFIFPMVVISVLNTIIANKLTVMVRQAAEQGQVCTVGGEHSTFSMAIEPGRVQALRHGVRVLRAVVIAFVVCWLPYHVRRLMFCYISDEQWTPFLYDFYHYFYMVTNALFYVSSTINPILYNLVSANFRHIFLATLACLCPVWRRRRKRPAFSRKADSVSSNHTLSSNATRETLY

[15] = biological target: Adrenergic receptor alpha-2 (Rattus norvegicus, UniProt P22086+P19328+P22909); test: Displacement of [3H]-RX 821002 from rat alpha2 adrenoceptor after 60 mins by scintillation counting analysis; type: protein assay
[16] = biological target: C-X-C chemokine receptor type 2 (Homo sapiens) (UniProt P25025); test: Displacement of [125I]IL-8 from human recombinant CXCR2 receptor at 10 uM after 60 mins by scintillation counting analysis relative to control
Sequence of C-X-C chemokine receptor type 2 (Homo sapiens) (P25025 whole entry): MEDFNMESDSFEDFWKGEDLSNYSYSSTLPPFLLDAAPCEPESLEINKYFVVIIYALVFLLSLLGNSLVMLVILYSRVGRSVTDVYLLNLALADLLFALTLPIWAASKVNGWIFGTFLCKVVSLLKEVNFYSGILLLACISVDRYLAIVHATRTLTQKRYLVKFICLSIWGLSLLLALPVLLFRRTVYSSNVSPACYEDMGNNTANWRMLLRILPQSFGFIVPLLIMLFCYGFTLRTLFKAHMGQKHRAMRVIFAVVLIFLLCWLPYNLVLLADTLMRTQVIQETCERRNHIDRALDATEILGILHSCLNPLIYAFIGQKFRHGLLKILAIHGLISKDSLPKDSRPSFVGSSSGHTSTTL

Rattus norvegicus [17] = species on record: Rattus norvegicus; test: Binding affinity to rat GABA receptor at 1 uM after 60 mins by agonist radioligand binding assay relative to control
[18] = biological target: T3, Nuclear receptor ROR-gamma (Homo sapiens, UniProt P51449); test: Inverse agonist activity at RORgammat in human whole blood assessed as reduction in IL17A production
T3 sequence (P51449 whole entry): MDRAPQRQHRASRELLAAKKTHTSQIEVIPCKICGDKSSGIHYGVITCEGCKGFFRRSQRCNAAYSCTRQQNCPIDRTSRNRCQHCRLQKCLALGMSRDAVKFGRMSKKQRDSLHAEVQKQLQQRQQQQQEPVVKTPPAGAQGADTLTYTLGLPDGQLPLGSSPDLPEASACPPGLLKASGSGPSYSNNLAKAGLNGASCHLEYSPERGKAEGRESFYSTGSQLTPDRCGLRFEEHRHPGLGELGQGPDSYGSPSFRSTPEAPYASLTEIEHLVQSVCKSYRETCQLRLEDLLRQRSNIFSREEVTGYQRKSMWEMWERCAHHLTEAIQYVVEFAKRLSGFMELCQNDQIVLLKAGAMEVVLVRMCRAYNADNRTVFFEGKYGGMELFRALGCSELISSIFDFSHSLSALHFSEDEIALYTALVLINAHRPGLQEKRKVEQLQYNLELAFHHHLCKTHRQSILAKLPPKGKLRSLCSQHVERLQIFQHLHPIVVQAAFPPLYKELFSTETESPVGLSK

Vasopressin V1a receptor [19] = biological target: T1, Vasopressin V1a receptor; test: Displacement of [3H]AVP from human recombinant V1a receptor after 60 mins by scintillation counting analysis
Rattus norvegicus [20] = species on record: Rattus norvegicus; test: Displacement of [3H]flunitrazepam from rat brain central BZD at 1 uM after 60 mins relative to control
[21] = biological target: C-X-C chemokine receptor type 2 (Homo sapiens) (UniProt P25025); test: Displacement of [125I]IL-8 from human recombinant CXCR2 receptor at 1 uM after 60 mins by scintillation counting analysis relative to control
[22] = biological target: Cyclin-dependent kinase 5/CDK5 activator 1 (Homo sapiens) (UniProt Q00535+Q15078); test: Inhibition of recombinant full length His-tagged human CDK5/p35 expressed in baculovirus expression system at 10 uM in presence of ATP relative to control
Sequence of Cyclin-dependent kinase 5/CDK5 activator 1 (Homo sapiens) (Q00535 whole entry): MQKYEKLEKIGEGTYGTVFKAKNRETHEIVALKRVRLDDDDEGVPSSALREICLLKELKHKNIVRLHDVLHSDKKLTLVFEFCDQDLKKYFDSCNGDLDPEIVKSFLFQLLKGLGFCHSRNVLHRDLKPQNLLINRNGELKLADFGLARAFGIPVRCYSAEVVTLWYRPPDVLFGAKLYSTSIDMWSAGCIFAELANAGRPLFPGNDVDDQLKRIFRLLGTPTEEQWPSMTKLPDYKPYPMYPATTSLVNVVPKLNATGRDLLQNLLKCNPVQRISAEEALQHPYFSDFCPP
Sequence of Cyclin-dependent kinase 5/CDK5 activator 1 (Homo sapiens) (Q15078 99-307 partner limits assumed): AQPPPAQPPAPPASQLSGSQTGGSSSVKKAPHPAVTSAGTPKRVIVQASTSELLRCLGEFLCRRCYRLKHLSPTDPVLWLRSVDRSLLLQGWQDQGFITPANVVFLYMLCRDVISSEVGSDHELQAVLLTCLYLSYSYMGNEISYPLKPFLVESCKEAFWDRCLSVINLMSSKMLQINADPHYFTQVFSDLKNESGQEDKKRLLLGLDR

SMILES: CC(C)(C)NS(=O)(=O)c1ccc(-c2sc(C(=O)N[C@H]3C[C@H](C(=O)O)C3)nc2CC2CCCCC2)c2ccccc12
- IC50 (D(1A) dopamine receptor): 0.21 nM
- inhibition [1]: < 10%
- inhibition (Nociceptin receptor): < 10%
- inhibition [2]: < 10%
- inhibition (Vasopressin V1a receptor [3]): 10%
- IC50 [4]: 164 nM
- half-life [5]: 126 min
- IC50 [6]: 3.4 nM
- inhibition [7]: -5%
- IC50 [8]: 0.25 nM
- inhibition [9]: < 10%
- inhibition (D(2) dopamine receptor): < 10%
- Cmax [10]: 130 ng/mL
- inhibition [11]: 10%
- inhibition [12]: < 10%
- inhibition [13]: 54%
- IC50 [14]: 0.25 nM
- IC50 [15]: 43 nM
- inhibition [16]: 24%
- inhibition (Rattus norvegicus [17]): < 10%
- EC50 [18]: 82 nM
- IC50 (Vasopressin V1a receptor [19]): 1.1 nM
- inhibition (Rattus norvegicus [20]): < 10%
- inhibition [21]: < 10%
- inhibition [22]: -4%
